Measured values published in patent US11725027B2, “Hypersensitive response elicitor-derived peptides and use thereof” (priority 2016, dated 2023).
Read-outs that look alike come from different tables or passages of the source. Marks after values point to notes of the source that are not given here. No end group written: not given here.

How the values were obtained:
[1] = 50° C.; for stability in buffer solutions: 50 mM buffers
Description: Briefly, the stability and resistance to chemical degradation of peptides can be assessed as follows using peptide samples having an initial purity of at least about 80%, at least about 82%, at least about 84%, at least about 86%, at least about 88%, at least about 90%, at least about 92%, at least about 94%, at least about 96%, or at least about 98%. For water stability, the peptide is dissolved directly in de-ionized water. For chemical degradation tests, the peptide is dissolved in an aqueous solution containing 50 mM pH buffer and 0.25% Proxel GXL. Exemplary pH buffers include, without limitation: (i) Citrate pH 5.6; (ii) MES pH 6.0; (iii) MOPS pH 6.5; (iv) imidazole pH 7.5; (v) Citrate pH 7.2; (vi) EDDS, pH 7.3; (vii) EDTA pH 8.0; (viii) sodium phosphate pH 8.0; or (ix) TES pH 8.0. Peptides are first dissolved in the aqueous solution at a concentration of 0.5 mg/ml. The samples are incubated at 50° C. to allow for accelerated degradation. An initial sample of the peptide is removed, diluted 10× with water, and analyzed by reverse-phase HPLC. Briefly, 20 μl of the sample is injected into the solvent flow of an HPLC instrument and analyzed on a C18 HPLC column (YMC ProPack C18, YMC, Japan, or C18 Stablebond, Agilent Technologies, USA) using either a triethylamine phosphate in water/acetonitrile gradient or a 0.1% TFA in water/0.1% TFA in acetonitrile gradient to separate different peptide species. Eluting peptides are monitored by UV absorbance at 218 nm and quantified based on the area under the peak. The area under the peak for the initial peptide sample is treated as the standard for relative quantification in subsequent runs. At regular intervals (e.g., 1, 3, 7, 10, and 14 days), each peptide sample is surveyed and analyzed by HPLC as described above.
(§1) Stability against chemical degradation was assessed in various pH buffers by creating 0.2% AI solutions of pure, chemically synthesized peptide in deionized water, 0.25% weight to volume of Proxel® GXL (biocide), and 50 millimolar (mM) of nine buffers (separately) as follows: Citrate, pH 5.6, MES pH 6.0, MOPS pH 6.5, Citrate pH 7.2, EDDS pH 7.3, imidazole pH 7.5, EDTA pH 8, Phosphate pH 8, and TES pH 8.

corn = assay: Drought resistance in corn (greenhouse, spray); format: in vivo; conditions: corn under drought
Description: (§2) The effectiveness of peptide treatment in reducing drought stress was assessed in corn and soy. 3.5 inch pots were filled with Sunshine #1 soil (SunGro Horticulture), fertilized with a 20-10-20 mixture. The soil was soaked and drained overnight. Seeds (either corn or soy, manually inspected to ensure uniform seed size) were planted at a depth of 1 inch for germination. Plants were grown in a greenhouse under 16 hour light days at >70° F. and 8 hour dark nights at >65° F. Prior to drought conditions, the plants were well-watered.
When the plants reached the V1 stage, plants were culled to achieve a uniform height (abnormally large and small plants were removed). Plants were then randomly assigned to control (spray without peptide) or treatment (spray with peptide) groups and heights were measured. Peptide was made up in a solution of 0.2 ug/ml or 2 ug/ml in distilled water+0.01% Tween-20, and applied as a fine mist from a spray bottle until the solution drips from the leaves. After the peptide solutions were dried, the plants were again randomized in a randomized complete block design. Drought stress was initiated after the peptide treatment. This was caused by maintaining the water level at 25-50% of the maximum capacity for water (capacity was decided as the weight of the pot filled with saturated soil minus the weight of the filled pot prior to adding water).
(§3) The drought test phase ended after 2-3 weeks. At that time, the plant height was again measured and the growth rate was calculated as the difference between this and the previously-recorded height. The above-ground part portions of the plants were harvested and weighed. The above-ground portion was also dried in an oven at 70° C. for 72 hours and a dry weight was obtained. All calculations were compared with matched untreated control plants.

[2] = tested on: Nicotiana tabacum cultivar xanthi plants; assay: Hypersensitive Response (HR) induction in tobacco leaves; format: in vivo; set-up: key to HR: Plants are considered HR-positive (“HR+”) if they exhibit wide-spread macroscopic cell death visible to the naked eye, accompanied by wilting and browning of the affected tissue within 48 hours; Plants are considered HR-negative (“HR−”) if they exhibit no discernible wilting or tissue death observable by naked eye; conditions: tobacco leaf infused with 500, 250, 125, 62.5, 31.25 μg/ml peptide solutions, scored over 48 hours
From the text: A property of a peptide to elicit a hypersensitive response, or not, upon infiltration or application of the peptide to plant tissues can be measured by applying the peptide in dry powder form or in solution form to a plant, particularly though not exclusively a plant leaf.
The minimal eliciting sequence derived from was developed based on the sequence of the hrex gene from Xanthomonas campestris pv. pelargonii. A number of truncated and mutated sequences were synthesized and tested for Hypersensitive Response induction (results in Table 4). HR in tobacco was tested as described in Wei, Science 257:85-88 (1992), which is hereby incorporated by reference in its entirety. Briefly, peptides were dissolved at a concentration of 500 μg/ml in aqueous solution. Four serial dilutions were performed with an equal volume of water, yielding peptide samples at 500, 250, 125, 62.5, 31.25 μg/ml peptide solutions. Nicotiana tabacum cultivar xanthi plants were used at 5-7 weeks old (preflowering). Leaves were lightly punctured with a toothpick in a middle leaf panel. Peptide solutions were then infused via needle-less syringe into the wound, filling the panel. Each peptide sample was infused into a leaf of 2 different plants. The leaves were observed and scored over the next 48 hours for withering and browning, lesions typical of programmed cell death. These studies had […] main goals: (1) determine the minimal sequence sufficient for HR elicitation (2) increase the solution stability of the peptides; (3) make disruptive mutations to verify the residues which are most important for HR elicitation; (4) make conservative mutations to identify the degree of specificity for particular amino acids.

[3] = 50 mM buffer solutions pH 5.6-8.0, 0.25% Proxel GXL
Description: as §1

[4] = Stability of material bulked with maltodextrin and buffer at room temperature; format: physicochemical; conditions: bulked with maltodextrin and phosphate buffer (pH 8.0) or citrate buffer (pH 7.2), 48 hours
Description: Samples of material P5, P5-21, and P5-25 bulked with maltodextrin and either phosphate buffer (pH 8.0) or citrate buffer (pH 7.2) were tested for stability at room temperature for 48 hours.

[5] = Solution (formulation) stability at 50° C. (HPLC); format: physicochemical; conditions: 0.25% Proxel GXL
Description: Peptides solutions were analyzed by HPLC for % loss of the peptide signal over time during incubation at 50° C., relative to the time 0 sample. Peptides were analyzed until the remaining peptide concentration decreased to 80% of original (20% degradation).

soybean cyst nematodes = assay: Seed coating with peptides compared with chemical nematode agents in soy; format: in vivo, soy (Sheyenne variety)
Description: Additional experiments will be performed to examine the effectiveness of peptide treatment in suppressing the growth of soybean cyst nematodes using one or more of the other peptides in Tables 1 and 2, including, without limitation, P5-21 and P5-25. See Example 8 below.
The effectiveness of peptides was tested in soy (Sheyenne variety) and compared with current anti-nematode chemicals. Briefly, soy seeds were commercially coated with peptide at rates of 10, 30, or 90 ug peptide per seed or with chemical nematicides Avicta Complete, Clariva Complete, Poncho/Votivo, or Velum total. 3 soy seeds were planted in a mixture of topsoil and sand (pasteurized) in a 10 cm diameter pot and were inoculated with 1500 eggs per pot at planting. 10 replicate pots were used per experimental condition. After plants emerged from the soil, the plants were thinned to one plant per pot. Plants were harvested about 45 days after planting. The following measures were taken: (1) Fresh shoot and root weights; (2) Root condition graded 0-10 for the presence of disease; (3) Nematode cysts per plant; (4) Nematode eggs per plant; and optionally (5) Male nematodes. The following values were calculated: eggs per gram of root, cysts per gram of root, and eggs per cyst.

[6] = tested on: tobacco mosaic virus (TMV); assay: Induction of resistance to tobacco mosaic virus in tobacco; format: in vivo; conditions: % decline in TMV lesions vs UTC, spray 20 ug/ml; for Effectiveness Covered (%): covered leaf (systemic response); for Effectiveness Uncovered (%): uncovered leaf (local response)
Description: Peptides were tested for the induction of resistance to tobacco mosaic virus (TMV) in tobacco. Briefly, three tobacco plants at 6-8 weeks old were selected per group (samples and controls). The bottom-most leaf of the plant was covered and the plant was sprayed with a solution of water (untreated control—UTC), peptide, or Proact (positive control). The spray was applied until the leaves were fully wetted, indicated by liquid dripping from the leaves. The plants were then allowed to dry and the leaf covering was removed.
Three days post-treatment, the previously-covered leaf and a leaf on the opposite side of the plant were then lightly dusted with diatomaceous earth and 20 ul of a 1.7 ug/ml solution of purified tobacco mosaic virus was applied. The TMV solution was then spread across the leaf surface by lightly rubbing solution and the diatomaceous earth across the surface of the leaves. Two minutes after inoculation, the diatomaceous earth was rinsed off the leaves with water. 3 days after TMV inoculation, the leaves were scored based on the number of TMV lesions observed. The leaf was also scored for signs of the hypersensitive response, including yellowing and wilting of the affected leaves.
Effectiveness described in Table 6 refers to the % decline in TMV lesions on treated vs UTC plants. A reduction of TMV on covered leaves indicates a systemic immune response in the plant while reduction on uncovered leaves indicates a local response. Asterisks indicate that the P-value derived from a T-test was <0.05.

soy = assay: Drought resistance in soy (greenhouse, spray); format: in vivo; conditions: soy under cyclic drought, 2.0 ug/ml
Description: as §2, with “in” for “in corn and”, “Seeds (soy,” for “Seeds (either corn or soy,”, “of half” for “of 1”
When the plants reached the growth stage when first trifoliate expanded, plants were culled to achieve a uniform height (abnormally large and small plants were removed). Plants were then randomly assigned to control (spray without peptide) or treatment (spray with peptide) groups and heights were measured. Peptide was made up in a solution of 0.2 ug/ml or 2 ug/ml in distilled water+0.04% Tween-20, and applied as a fine mist from a spray bottle until the solution drips from the leaves. After the peptide solutions were dried, the plants were again randomized in a randomized complete block design. Cyclic drought stress was initiated after the peptide treatment. Plants were subjected to at least three drought cycles of drought stress (3-5 days of withholding water and 1 day irrigated with saturating amount of water) before harvesting.
as §3, with “weighed to obtain fresh weight.” for “weighed.”, “to obtain” for “and a”, “weight.” for “weight was obtained.”

[7] = EDTA buffer pH 8.0, 50 mM, after 14 days

LDLLLAFIAAALEEEEEE [Peptide P5-9]
stability in buffer solutions [1]: better stability compared with P5
peptide remaining ([1]; citrate pH 7.2, 50 mM, after 14 days): above 80%
peptide remaining ([1]; phosphate pH 8.0, 50 mM, after 14 days): above 80%

NQGISEKQQLDLLLAFIAAALQQ [Peptide P5-76]
Dry Weight Increase (%) (corn; 0.2 ug/ml): 5.33* %
Fresh Weight Increase (%) (corn; 0.2 ug/ml): 2.00%
HR [2]: Weak+

QLELLLAFIAAALQQ [Peptide P5-5]
solubility [3]: Precipitation

SAGSEQQEDLLLMFIMMMLQQ [Peptide P5-35]
Dry Weight Increase (%) (corn; 2.0 ug/ml): −6.57* %
Fresh Weight Increase (%) (corn; 2.0 ug/ml): −6.05* %
HR [2]: Weak+

SAGSEQQLDLLLMFIMMMLQQ [Peptide P5]
degradation (more than 5% loss) [4]: No significant degradation
Time before 20% degradation ([5]; 50 mM phosphate pH 8.0, 30% IPA, 5 mM DTPA, 0.09% AI): 21 days
stability in buffer solutions [1]: generally poor stability
peptide remaining [1, 7]: about 40%

SEEEEQLDQLLLAFIAAALQQ [Peptide P5-25]
degradation (more than 5% loss) [4]: No significant degradation
reduction in cysts per gram root (soybean cyst nematodes; 10 ug peptide per seed): 92%
reduction in eggs per gram root (soybean cyst nematodes; 10 ug peptide per seed): 94%
reduction in cysts per gram root (soybean cyst nematodes; 30 ug peptide per seed): 82%
reduction in eggs per gram root (soybean cyst nematodes; 30 ug peptide per seed): 85%
reduction in cysts per gram root (soybean cyst nematodes; 90 ug peptide per seed): 91%
reduction in eggs per gram root (soybean cyst nematodes; 90 ug peptide per seed): 93%
drought resistance, experimental results (corn): not statistically significant
Effectiveness Covered (%) [6]: 93* %
Effectiveness Uncovered (%) [6]: 91* %
Time before 20% degradation ([5]; 50 mM citrate pH 7.2, 0.09% AI): 53 days
HR [2]: -

SEEQLDQLLLAFIAAALQEE [Peptide P5-27]
Dry Weight Increase (%) (soy): 2.04%
Fresh Weight Increase (%) (soy): 4.07* %
Time before 20% degradation ([5]; 50 mM imidazole pH 7.5, 50% IPA, 0.09% AI): 50 days
HR [2]: -

SEEQLDQLLLMFIMMMLQQEE [Peptide P5-46]
Dry Weight Increase (%) (corn; 2.0 ug/ml): 3.71%
Fresh Weight Increase (%) (corn; 2.0 ug/ml): 9.05** %
Effectiveness Covered (%) [6]: 74* %
Effectiveness Uncovered (%) [6]: 85* %
HR [2]: +

SEEQLELLLAFIAAALQQEE [Peptide P5-21]
degradation (more than 5% loss) [4]: No significant degradation
Time before 20% degradation ([5]; 50 mM citrate pH 7.2, 20% IPA, 0.09% AI): 41 days
peptide remaining [1, 7]: around 80%
peptide remaining (stability) ([1]; all buffers pH>7.0 except EDTA, 50 mM, after 14 days): > 90%
